This note sets out measurements from the supplement of paper PMC11061612.

In experiment [1] the test system is DOV13 (Ovarian Carcinoma). Nature of the experiment: Bliss excess, mean over the matrix (fraction); higher = more synergy. In outline:
(§1)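 Cell lines grown in DMEM/F12 or RPMI with 10% FBS were plated in 1536-well plates and held 24 hours at 37°C, 5% CO2 before 72 hours of exposure to two-drug dose matrices, with DMSO typically at 0.2%. CellTiter-Glo 2.0 luminescence gave viability, which was converted to inhibition. Vehicle wells were set to 0 and blank wells to 1. Combination Emax is the second-highest inhibition in the matrix, and Bliss excess is the observed combination effect minus the expected EA + EB − EA·EB, where EA and EB are the single-agent effects.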

The test system of the next experiment is DSH1 (Bladder Carcinoma). Described as above. In outline: as §1
Experiment [2] deals with G-292-Clone-A141B1 (Osteosarcoma). Described as above. The gist of the method:
as §1

In experiment [3] the test system is IHH-4 (Thyroid Gland Carcinoma). The description is as above. The gist of the method:
as §1

In experiment [4] the test system is KARPAS-1106P (B-Cell Non-Hodgkin's Lymphoma). The experiment is described as above. In outline:
as §1

The subject of experiment [5] is KARPAS-620 (Plasma Cell Myeloma). The experiment is described as above. In outline:
as §1

Experiment [6] concerns KATOIII (Gastric Carcinoma). Described as above. In outline: as §1
In experiment [7] the test system is LS-513 (Colorectal Carcinoma). The description is as above. In outline:
as §1

In experiment [8] the test system is MFH-ino (Other Solid Carcinomas). Described as above. The gist of the method: as §1
Experiment [9] relates to NCI-H211 (Small Cell Lung Carcinoma). Described as above. In outline:
as §1

Another experiment concerns NCI-H2595 (Mesothelioma). Described as above. The gist of the method: as §1
In experiment [10] the test system is OCI-AML2 (Acute Myeloid Leukemia). The description is as above. The gist of the method: as §1
The subject of another experiment is SK-N-FI (Neuroblastoma). The description is as above. In outline: as §1
Another experiment has as its system SN12C (Kidney Carcinoma). The description is as above. The gist of the method:
as §1

Experiment [11] has as its system KM-H2 (Hodgkin's Lymphoma). The experiment in a line: combination Emax (second highest fraction inhibited in the dose matrix, 72 h); higher = more inhibition; extreme values may be limits of the assay. The gist of the method:
as §1

A further experiment deals with RH-1 (Ewing's Sarcoma). Described as above. The gist of the method: as §1
In experiment [12] the test system is SUIT-2 (Pancreatic Carcinoma). The description is as above. The gist of the method: as §1
The subject of experiment [13] is SW756 (Cervical Carcinoma). Described as above. In outline: as §1
In experiment [14] the test system is SW780 (Bladder Carcinoma). The experiment is described as above. The gist of the method: as §1
Experiment [15] deals with TGBC24TKB (Biliary Tract Carcinoma). The description is as above. The gist of the method: as §1
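Wherever Bliss excess, mean over the matrix is given: after 72 h of two-drug dosing.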

For `C[C@@H](Nc1cc(F)cc(F)c1)c1cc(C(=O)N(C)C)cc2c(=O)cc(N3CCOCC3)oc12` [AZD8186] + C1CN(CCC1(C(=O)N[C@@H](CCO)C2=CC=C(C=C2)Cl)N)C3=NC=NC4=C3C=CN4 [AZD5363] (first compound max 10 µM, 7x7, partner max 10 µM), the Bliss excess is 0.026 in experiment [1]; -0.0297 in the experiment on DSH1 (Bladder Carcinoma); -0.0518 in [2]; 0.0233 in [3]; -0.0234 in [4]; 0.0152 in experiment [5]. The Bliss excess is -0.0739 in experiment [6]; -0.0681 in experiment [7]; -0.0258 in experiment [8]; -0.0006 in experiment [9]; -0.0537 in the experiment on NCI-H2595 (Mesothelioma); -0.0007 in [10]. Moreover, the Bliss excess with SK-N-FI (Neuroblastoma) is -0.0299; with SN12C (Kidney Carcinoma), -0.0471.
For the compound `C=CCn1c(=O)c2cnc(Nc3ccc(N4CCN(C)CC4)cc3)nc2n1-c1cccc(C(C)(C)O)n1` [AZD1775] + CCc1c2c(nc3ccc(O)cc13)-c1cc3c(c(=O)n1C2)COC(=O)[C@]3(O)CC [SN-38] (first compound max 1 µM, partner max 0.3 µM), the Bliss excess is -0.0262 in experiment [1]; -0.0654 in the experiment with DSH1 (Bladder Carcinoma); 0.023 in experiment [2]; -0.0485 in [3]; -0.0946 in experiment [4]; -0.0145 in experiment [5]. The Bliss excess in experiment [6] was -0.0948; in [7] it was -0.0867; in [8], -0.0756; in [9] it was -0.0576; with NCI-H2595 (Mesothelioma), -0.0096; in experiment [10], -0.0278. The Bliss excess with SK-N-FI (Neuroblastoma) was -0.0038; with SN12C (Kidney Carcinoma), 0.0364.
Consider `O=C(c1cc(Cc2n[nH]c(=O)c3ccccc23)ccc1F)N1CCN(C(=O)C2CC2)CC1` [Olaparib] + CN(CC[C@H](CSC1=CC=CC=C1)NC2=C(C=C(C=C2)S(=O)(=O)NC(=O)C3=CC=C(C=C3)N4CCC(CC4)[C@H](C5=CC=CC=C5C6=CC=C(C=C6)Cl)O)S(=O)(=O)C(F)(F)F)CCO [AZD4320] (first compound max 10 µM, 7x7, partner max 1 µM), for which the Bliss excess in [1] was 0.0543; in the experiment with DSH1 (Bladder Carcinoma) it was 0.0308; in experiment [2], -0.0275; in experiment [3], -0.0368; in experiment [4] it was -0.035; in experiment [5], 0.0017. The Bliss excess in [6] is -0.0047; in [7], -0.0326; in experiment [8], -0.0594; in [9], 0.0233; with NCI-H2595 (Mesothelioma), -0.045; in experiment [10], 0.041. The Bliss excess was -0.0374 in the experiment on SK-N-FI (Neuroblastoma) and -0.0401 in the experiment with SN12C (Kidney Carcinoma).
For `N#Cc1cnc(Nc2cc(NC[C@H]3CNCCO3)c(C(F)(F)F)cn2)cn1` [SRA737] + O=c1[nH]cc(F)c(=O)[nH]1 [5-Fluorouracil] (first compound max 10 µM, 7x7, partner max 20 µM), the Bliss excess in experiment [1] was 0.0258; with DSH1 (Bladder Carcinoma) it was 0.0051; in experiment [2] it was -0.0458; in experiment [3], 0.098; in [4], 0.0407; in [5] it was 0.0096. The Bliss excess is -0.0805 in [6]; -0.0287 in experiment [7]; 0.0373 in experiment [8]; 0.0823 in experiment [9]; -0.0448 in the experiment on NCI-H2595 (Mesothelioma); 0.0247 in experiment [10]. For the same compound, the Bliss excess in the experiment with SK-N-FI (Neuroblastoma) is -0.0627; in the experiment with SN12C (Kidney Carcinoma), -0.0474.
In the case of `O=C(c1cc(Cc2n[nH]c(=O)c3ccccc23)ccc1F)N1CCN(C(=O)C2CC2)CC1` [Olaparib] + COc1nnc2ccc(N3CCC(c4ccc(OCCN5CCN(C)C(=O)[C@H]5C)cc4)CC3)nn12 [AZD5153] (first compound max 10 µM, 7x7, partner max 1 µM), the Bliss excess in experiment [1] was -0.0778; with DSH1 (Bladder Carcinoma), -0.0925; in experiment [2] it was -0.0523; in experiment [3], -0.0058; in experiment [4], -0.0162; in experiment [5], -0.0365. Also, the Bliss excess in experiment [6] was -0.0584; in [7] it was -0.0628; in [8], -0.07; in experiment [9] it was -0.0168; with NCI-H2595 (Mesothelioma) it was -0.12; in experiment [10] it was -0.02. For the same compound, the Bliss excess was -0.0577 with SK-N-FI (Neuroblastoma) and -0.0222 in the experiment on SN12C (Kidney Carcinoma).
With `CS(=O)(=O)CCNCc1ccc(-c2ccc3ncnc(Nc4ccc(OCc5cccc(F)c5)c(Cl)c4)c3c2)o1` [Lapatinib] + NC1(c2ccc(-c3nc4ccn5c(=O)[nH]nc5c4cc3-c3ccccc3)cc2)CCC1 [MK-2206] (first compound max 10 µM, 7x7, partner max 10 µM), the Bliss excess is 0.0362 in experiment [1]; 0.0917 in the experiment with DSH1 (Bladder Carcinoma); -0.0004 in experiment [2]; 0.0087 in [3]; -0.0022 in [4]; 0.032 in experiment [5]. In addition, the Bliss excess in experiment [6] was 0.0226; in experiment [7], -0.0396; in experiment [8], -0.102; in experiment [9] it was 0.058; with NCI-H2595 (Mesothelioma) it was -0.0559; in [10], 0.0419. Also, the Bliss excess with SK-N-FI (Neuroblastoma) was -0.0027; in the experiment with SN12C (Kidney Carcinoma), -0.0236. The “combination Emax” value in experiment [11] is 0.939; in the experiment on RH-1 (Ewing's Sarcoma), 0.936; in experiment [12] it was 0.361; in experiment [13], 0.175; in experiment [14], 0.737; in experiment [15], 0.957.
As for `CS(=O)(=O)CCNCc1ccc(-c2ccc3ncnc(Nc4ccc(OCc5cccc(F)c5)c(Cl)c4)c3c2)o1` [Lapatinib] + Cn1cnc2c(F)c(Nc3ccc(Br)cc3Cl)c(C(=O)NOCCO)cc21 [Selumetinib] (first compound max 10 µM, 7x7, partner max 10 µM), the Bliss excess was -0.0166 in [1]; -0.067 in the experiment on DSH1 (Bladder Carcinoma); -0.0566 in experiment [2]; -0.0136 in experiment [3]; 0.0436 in experiment [4]; 0.0746 in [5]. For the same compound, the Bliss excess in experiment [6] is -0.0223; in experiment [7], -0.054; in experiment [8], -0.0468; in experiment [9], 0.0084; in the experiment on NCI-H2595 (Mesothelioma) it was -0.0548; in [10], -0.0296. Further, the Bliss excess was 0.0179 in the experiment with SK-N-FI (Neuroblastoma) and -0.0375 with SN12C (Kidney Carcinoma).
For the compound `Cc1c2c(nn1C)CSCc1cc(n(C)n1)CSc1cc(c3ccccc3c1)OCCCc1c(C(=O)O)n(C)c3c-2c(Cl)ccc13` [AZD5991] + Nc1ccn([C@@H]2O[C@H](CO)[C@@H](O)C2(F)F)c(=O)n1 [Gemcitabine] (first compound max 1 µM, 7x7, partner max 0.3 µM), the Bliss excess in experiment [1] was -0.0605; in the experiment on DSH1 (Bladder Carcinoma), 0.053; in experiment [2] it was -0.0587; in experiment [3], 0.0122; in experiment [4], -0.0216; in experiment [5] it was 0.031. Further, the Bliss excess in [6] was 0.0444; in [7], -0.102; in experiment [8], -0.0495; in experiment [9] it was 0.0489; in the experiment with NCI-H2595 (Mesothelioma), -0.0053; in experiment [10], 0.0516. The Bliss excess in the experiment on SK-N-FI (Neuroblastoma) was 0.0074; with SN12C (Kidney Carcinoma) it was -0.0232.
With `C[C@@H](Nc1cc(F)cc(F)c1)c1cc(C(=O)N(C)C)cc2c(=O)cc(N3CCOCC3)oc12` [AZD8186] + CC(=O)c1c(C)c2cnc(Nc3ccc(N4CCNCC4)cn3)nc2n(C2CCCC2)c1=O [Palbociclib] (first compound max 10 µM, 7x7, partner max 10 µM), the Bliss excess in experiment [1] is -0.224; with DSH1 (Bladder Carcinoma) it was 0.104; in experiment [2], -0.0001; in experiment [3], 0.125; in experiment [4] it was -0.04; in experiment [5], 0.15. Besides, the Bliss excess in experiment [6] is 0.0615; in experiment [7] it was 0.0084; in experiment [8] it was 0.0173; in experiment [9], 0.2; in the experiment with NCI-H2595 (Mesothelioma), -0.0917; in experiment [10] it was 0.132. Also, the results for the Bliss excess in the experiment with SK-N-FI (Neuroblastoma) and in the experiment with SN12C (Kidney Carcinoma) were 0.0089 and 0.0245, respectively.
On to `Cc1cc2ncnn2cc1Nc1ncc2c(n1)n(C1CCOCC1)c(=O)n2C` [AZD7648] + COc1cc([C@@H]2c3cc4c(cc3[C@@H](O[C@@H]3O[C@@H]5CO[C@@H](C)O[C@H]5[C@H](O)[C@H]3O)[C@H]3COC(=O)[C@H]23)OCO4)cc(OC)c1O [Etoposide] (first compound max 10 µM, 7x7, partner max 10 µM), for which the Bliss excess in experiment [1] is 0.0276; in the experiment on DSH1 (Bladder Carcinoma), 0.0627; in experiment [2], 0.0701; in experiment [3], 0.185; in experiment [4] it was 0.0551; in experiment [5], 0.0051. The Bliss excess in experiment [6] was -0.0224; in experiment [7] it was 0.111; in experiment [8], 0.0513; in [9], 0.0313; in the experiment on NCI-H2595 (Mesothelioma), 0.0252; in experiment [10], 0.175. The Bliss excess in the experiment on SK-N-FI (Neuroblastoma) was -0.0258; in the experiment on SN12C (Kidney Carcinoma), 0.0424.
